Data: patent US9920030B2 (priority 2006, dated 2018)
Where two headings read alike, the source gives them in different places.

What was measured:
Assay type in all cases: in vivo
[1] = tested on: Plasmopara vilicola (the causal agent of grape downy mildew); test: Test A: grape downy mildew, test suspension sprayed on grape seedlings after inoculation, visual disease rating; conditions: for pest or weed control at 40 ppm / pest or weed control at 10 µg/mL: Plasmopara, 144 h, read-out: Percent Disease Control, Test A
Text: General protocol for preparing test suspensions for Test A-C: The test compounds were first dissolved in acetone in an amount equal to 3% of the final volume and then suspended at the desired concentration (in ppm) in acetone and purified water (50/50 mix by volume) containing 250 ppm of the surfactant Trem® 014 (polyhydric alcohol esters). The resulting test suspensions were then used in Tests A-C. Spraying a 200 ppm test suspension to the point of run-off on the test plants was equivalent to a rate of 500 g/ha.
Grape seedlings were inoculated with a spore suspension of Plasmopara vilicola (the causal agent of grape downy mildew) and incubated in a saturated atmosphere at 20° C. for 24 h. After a short drying period, the test suspension was sprayed to the point of run-off on the grape seedlings, which were then moved to a growth chamber at 20° C. for 5 days, after which time the grape seedling were placed back into a saturated atmosphere at 20° C. for 24 h. Upon removal, visual disease ratings were made.
Results for Tests A-C are given in Table A. In the table, a rating of 100 indicates 100% disease control and a rating of 0 indicates no disease control (relative to the controls). A dash (-) indicates no test results.

[2] = tested on: Phytophthora infestans (the causal agent of tomato late blight); test: whole plant or invertebrate; conditions: for pest or weed control at 40 ppm / pest or weed control at 10 µg/mL: Phytophthora infestans, 96 h, read-out: Percent Disease Control, Test C
[3] = tested on: Phytophthora infestans (the causal agent of tomato late blight); test: whole plant or invertebrate; conditions: for pest or weed control at 40 ppm / pest or weed control at 10 µg/mL: Phytophthora infestans, 144 h, read-out: Percent Disease Control, Test B
[4] = compounds without asterisk (application rate not given), 100 = 100% disease control, 0 = no control relative to the controls

## 1-[4-[4-(4,5-dihydro-5-(2-pyridinyl)-3-isoxazolyl)-2-thiazolyl]-1-piperidinyl]-2-[5-methyl-3-(trifluoromethyl)-1H-pyrazol-1-yl]ethanone [Compound 98]
[1]; [4]
  Percent Disease Control, Test A: 99%
[2]; [4]
  Percent Disease Control, Test C: 99%
[3]; [4]
  Percent Disease Control, Test B: 100%

## 1-[4-[4-(4,5-dihydro-5-phenyl-3-isoxazolyl)-2-thiazolyl]-3,6-dihydro-1(2H)-pyridinyl]-2-[5-methyl-3-(trifluoromethyl)-1H-pyrazol-1 yl]ethanone [Compound 217]
[1]; [4]
  Percent Disease Control, Test A: 0%
[2]; [4]
  Percent Disease Control, Test C: 86%
[3]; [4]
  Percent Disease Control, Test B: 95%

## 1-[4-[4-[5-(2-chlorophenyl)-4,5-dihydro-3-isoxazolyl]-2-thiazolyl]-1-piperidinyl]-2-[5-methyl-3-(trifluoromethyl)-1H-pyrazol-1-yl]ethanone [Compound 8]
[1]; [4]
  Percent Disease Control, Test A: 96%
[2]; [4]
  Percent Disease Control, Test C: 99%
[3]; [4]
  Percent Disease Control, Test B: 100%

## 1-[4-[4-[(5R)-4,5-dihydro-5-phenyl-3-isoxazolyl]-2-thiazolyl]-1-piperidinyl]-2-[5-methyl-3-(trifluoromethyl)-1H-pyrazol-1-yl]ethanone [Compound 3]
[1]; [4]
  Percent Disease Control, Test A: 52%
[2]; [4]
  Percent Disease Control, Test C: 0%
[3]; [4]
  Percent Disease Control, Test B: 47%

## 2-[5-chloro-3-(trifluoromethyl)-1H-pyrazol-1-yl]-1-[4-[4-(4,5-dihydro-5-phenyl-3-isoxazolyl)-2-thiazolyl]-1-piperidinyl]ethanone [Compound 107]
[1]; [4]
  Percent Disease Control, Test A: 97%
[2]; [4]
  Percent Disease Control, Test C: 99%
[3]; [4]
  Percent Disease Control, Test B: 100%

## Cc1cc(C(F)(F)F)nn1CC(=O)N1CCC(c2nc(C3=NOC4(CCCCC4c4ccccc4)C3)cs2)CC1 (mixture of isomers) [Compound 170]
[1]; * tested at 40 ppm
  Percent Disease Control, Test A: 99%
[2]; * tested at 40 ppm
  Percent Disease Control, Test C: 93%
[3]; * tested at 40 ppm
  Percent Disease Control, Test B: 100%

## Cc1cc(C(F)(F)F)nn1CC(=O)N1CCC(c2nc(C3=NOC4(CCCC(c5ccccc5)C4)C3)cs2)CC1 (mixture of isomers) [Compound 171]
[1]; * tested at 40 ppm
  Percent Disease Control, Test A: 99%
[2]; * tested at 40 ppm
  Percent Disease Control, Test C: 98%
[3]; * tested at 40 ppm
  Percent Disease Control, Test B: 100%

## Cc1cc(C(F)(F)F)nn1CC(=O)N1CCC(c2nc(C3=NOC(c4cccc(Cl)c4)C3)cs2)CC1 (racemic) [Compound 17]
[1]; * tested at 40 ppm
  Percent Disease Control, Test A: 100%
[2]; * tested at 40 ppm
  Percent Disease Control, Test C: 99%
[3]; * tested at 40 ppm
  Percent Disease Control, Test B: 99%

## Cc1cc(C(F)(F)F)nn1CC(=O)N1CCC(c2nc(C3=NOC(Cc4ccccc4)C3)cs2)CC1 (racemic) [Compound 24]
[1]; [4]
  Percent Disease Control, Test A: 99%
[2]; [4]
  Percent Disease Control, Test C: 93%
[3]; [4]
  Percent Disease Control, Test B: 100%

## Cc1cc(C(F)(F)F)nn1CC(=O)N1CCC(c2nc(C3=NOC(CCC(C)C)C3)cs2)CC1 (racemic) [Compound 27]
[1]; [4]
  Percent Disease Control, Test A: 100%
[2]; [4]
  Percent Disease Control, Test C: 98%
[3]; [4]
  Percent Disease Control, Test B: 100%

## Cc1cc(C(F)(F)F)nn1CC(=O)N1CCC(c2nc(C3=NOC(CC(C)(C)C)C3)cs2)CC1 (racemic) [Compound 28]
[1]; [4]
  Percent Disease Control, Test A: 99%
[2]; [4]
  Percent Disease Control, Test C: 94%
[3]; [4]
  Percent Disease Control, Test B: 100%

## Cc1cc(C(F)(F)F)nn1CC(=O)N1CCC(c2nc(C3=NO[C@@H](N4C(=O)c5ccccc5C4=O)C3)cs2)CC1 (racemic) [Compound 129]
[1]; * tested at 40 ppm
  Percent Disease Control, Test A: 99%
[2]; * tested at 40 ppm
  Percent Disease Control, Test C: 99%
[3]; * tested at 40 ppm
  Percent Disease Control, Test B: 100%

## Cc1cc(C(F)(F)F)nn1CC(=O)N1CCC(c2nc(C3=NO[C@@H](c4c(Cl)cccc4Cl)C3)cs2)CC1 (racemic) [Compound 135, 1-[4-[4-[(5R)-5-(2,6-dichlorophenyl)-4,5-dihydro-3-isoxazolyl]-2-thiazolyl]-1-piperidinyl]-2-[5-methyl-3-(trifluoromethyl)-1H-pyrazol-1-yl]ethanone]
[1]; * tested at 40 ppm
  pest or weed control at 40 ppm: 100%
[2]
  pest or weed control at 40 ppm: 99%
[3]
  pest or weed control at 40 ppm: 100%

## COc1cc(OC)c([C@H]2CC(c3csc(C4CCN(C(=O)Cn5nc(C(F)(F)F)cc5C)CC4)n3)=NO2)c(OC)c1 (racemic) [Compound 155, 1-[4-[4-[(5R)-4,5-dihydro-5-(2,4,6-trimethoxyphenyl)-3-isoxazolyl]-2-thiazolyl]-1-piperidinyl]-2-[5-methyl-3-(trifluoromethyl)-1H-pyrazol-1-yl]ethanone]
[1]; * tested at 40 ppm
  pest or weed control at 40 ppm: 100%
[2]
  pest or weed control at 40 ppm: 99%
[3]
  pest or weed control at 40 ppm: 100%

## Cc1cc(C)n(CC(=O)N2CCC(c3nc(C4=NO[C@]5(CCCc6ccccc65)C4)cs3)CC2)n1 (racemic) [Compound 164, 1-[4-[4-[(1′R)-3′,4′-dihydrospiro[isoxazole-5(4H),1′(2′H)-naphthalen]-3-yl]-2-thiazolyl]-1-piperidinyl]-2-(3,5-dimethyl-1H-pyrazol-1-yl)ethanone]
[1]; ** tested at l0 ppm
  pest or weed control at 10 µg/mL: 99%
[2]
  pest or weed control at 10 µg/mL: 99%
[3]
  pest or weed control at 10 µg/mL: 100%

## O=C(Cn1nc(C(F)(F)F)cc1C(F)(F)F)N1CCC(c2nc(C3=NO[C@]4(CCCc5ccccc54)C3)cs2)CC1 (racemic) [Compound 229, 2-[3,5-bis(trifluoromethyl)-1H-pyrazol-1-yl]-1-[4-[4-[(1′R)-3′,4′-dihydrospiro[isoxazole-5(4H), 1′(2′H)-naphthalen]-3-yl]-2-thiazolyl]-1-piperidinyl]ethanone]
[1]; ** tested at l0 ppm
  pest or weed control at 10 µg/mL: 100%
[2]
  pest or weed control at 10 µg/mL: 100%
[3]
  pest or weed control at 10 µg/mL: 100%

## O=C(Cn1nc(C(F)(F)F)cc1Cl)N1CCC(c2nc(C3=NO[C@]4(CCCc5ccccc54)C3)cs2)CC1 (racemic) [Compound 230, 2-[5-chloro-3-(trifluoromethyl)-1H-pyrazol-1-yl]-1-[4-[4-[(1′R)-3′,4′-dihydrospiro[isoxazole-5(4H), 1′(2′H)-naphthalen]-3-yl]-2-thiazolyl]-1-piperidinyl]ethanone]
[1]; ** tested at l0 ppm
  pest or weed control at 10 µg/mL: 100%
[2]
  pest or weed control at 10 µg/mL: 100%
[3]
  pest or weed control at 10 µg/mL: 100%

## O=C(Cn1nc(C(F)(F)F)cc1C(F)(F)F)N1CCC(c2nc(C3=NO[C@]4(CCc5ccccc54)C3)cs2)CC1 (racemic) [Compound 231, 2-[3,5-bis(trifluoromethyl)-1H-pyrazol-1-yl]-1-[4-[4-[(1R)-2,3-dihydrospiro[1H-indene-1,5′(4′1H)-isoxazol]-3′-yl]-2-thiazolyl]-1-piperidinyl]ethanone]
[1]; ** tested at l0 ppm
  Percent Disease Control, Test A: 100%
[2]; ** tested at l0 ppm
  Percent Disease Control, Test C: 100%
[3]; ** tested at l0 ppm
  Percent Disease Control, Test B: 100%

## C[C@]1(c2ccccc2)CC(c2csc(C3CCN(C(=O)Cn4nc(C(F)(F)F)cc4Cl)CC3)n2)=NO1 (racemic) [Compound 261, 2-[5-chloro-3-(trifluoromethyl)-1H-pyrazol-1-yl]-1-[4-[4-[(5R)-4,5-dihydro-5-methyl-5-phenyl-3-isoxazolyl]-2-thiazolyl]-1-piperidinyl]ethanone]
[1]; ** tested at l0 ppm
  pest or weed control at 10 µg/mL: 100%
[2]
  pest or weed control at 10 µg/mL: 93%
[3]
  pest or weed control at 10 µg/mL: 100%

## Cc1cc(C(F)(F)F)nn1CC(=O)N1CCC(c2nc(C3=NO[C@@](C#N)(c4ccccc4)C3)cs2)CC1 (racemic) [Compound 265, (5R)-4,5-dihydro-3-[2-[1-[2-[5-methyl-3-(trifluoromethyl)-1H-pyrazol-1-yl]acetyl]-4-piperidinyl]-4-thiazolyl]-5-phenyl-5-isoxazolecarbonitrile]
[1]; ** tested at l0 ppm
  pest or weed control at 10 µg/mL: 100%
[2]
  pest or weed control at 10 µg/mL: 98%
[3]
  pest or weed control at 10 µg/mL: 100%

## Cc1cc(C(F)(F)F)nn1CC(=O)N1CCC(c2nc(C3=NOC(c4ccccc4)C3)cs2)CC1 (single isomer, unassigned) [Compound 4]
[1]; ** tested at l0 ppm
  Percent Disease Control, Test A: 100%
[2]; ** tested at l0 ppm
  Percent Disease Control, Test C: 99%
[3]; ** tested at l0 ppm
  Percent Disease Control, Test B: 100%

## Cc1cc(C(F)(F)F)nn1CC(=O)N1CCC(c2nc(C3=NOC4(CCC(c5ccccc5)C4)C3)cs2)CC1 (single isomer, unassigned) [Compound 157]
[1]; * tested at 40 ppm
  Percent Disease Control, Test A: 100%
[2]; * tested at 40 ppm
  Percent Disease Control, Test C: 94%
[3]; * tested at 40 ppm
  Percent Disease Control, Test B: 100%

## Cc1cccc(-c2csc(C3CCN(C(=O)Cn4nc(C(F)(F)F)cc4C)CC3)n2)c1 [Compound 149]
[1]; [4]
  Percent Disease Control, Test A: 99%
[3]; [4]
  Percent Disease Control, Test B: 97%

## COc1ccc(-c2csc(C3CCN(C(=O)Cn4nc(C(F)(F)F)cc4C)CC3)n2)cc1 [Compound 150]
[1]; [4]
  Percent Disease Control, Test A: 99%
[3]; [4]
  Percent Disease Control, Test B: 100%

## Cc1ccc(-c2csc(C3CCN(C(=O)Cn4nc(C(F)(F)F)cc4C)CC3)n2)cc1 [Compound 151]
[1]; [4]
  Percent Disease Control, Test A: 100%
[3]; [4]
  Percent Disease Control, Test B: 99%

## COc1cccc(-c2csc(C3CCN(C(=O)Cn4nc(C(F)(F)F)cc4C)CC3)n2)c1 [Compound 152]
[1]; [4]
  Percent Disease Control, Test A: 91%
[3]; [4]
  Percent Disease Control, Test B: 89%

## COc1ccccc1-c1csc(C2CCN(C(=O)Cn3nc(C(F)(F)F)cc3C)CC2)n1 [Compound 153]
[1]; [4]
  Percent Disease Control, Test A: 73%
[3]; [4]
  Percent Disease Control, Test B: 0%
